Source: publication PMC9898036, “VIP152 is a selective CDK9 inhibitor with pre-clinical in vitro and in vivo efficacy in chronic lymphocytic leukemia” (Leukemia, 2022)

Experiments:
S6K1 = S6K1 (Homo sapiens, UniProt P23443); test: KINOMEscan: S6K1; format: binding; conditions: 100 nM, read-out: Percent Control
INSRR = INSRR (Homo sapiens, UniProt P14616); test: KINOMEscan: INSRR; format: binding; conditions: 1000 nM, read-out: Percent Control
TAOK1 = TAOK1 (Homo sapiens, UniProt Q7L7X3); test: KINOMEscan: TAOK1; format: binding; conditions: 100 nM, read-out: Percent Control
EGFR(G719C) = EGFR(G719C) (Homo sapiens, UniProt P00533, G719C); test: KINOMEscan: EGFR(G719C); format: binding; conditions: 1000 nM, read-out: Percent Control
GRK1 = GRK1 (Homo sapiens, UniProt Q15835); test: KINOMEscan: GRK1; format: binding; conditions: 1000 nM, read-out: Percent Control
DMPK2 = DMPK2 (Homo sapiens, UniProt Q6DT37); test: KINOMEscan: DMPK2; format: binding; conditions: 1000 nM, read-out: Percent Control
JNK1 = JNK1 (Homo sapiens, UniProt P45983); test: KINOMEscan: JNK1; format: binding; conditions: 1000 nM, read-out: Percent Control
ADCK3 = ADCK3 (Homo sapiens, UniProt Q8NI60); test: KINOMEscan: ADCK3; format: binding; conditions: 1000 nM, read-out: Percent Control
Adrenergic β2 = Adrenergic β2 (Homo sapiens, UniProt P07550); test: Eurofins Diversity Panel; format: binding; conditions: hum, Conc. 10 μM
FLT3(ITD,F691L) = FLT3(ITD,F691L) (Homo sapiens, UniProt P36888, F691L/ITD); test: biochemical; design: DiscoverX KINOMEscan kinase panel, per cent of control (100 = no effect), single concentrations; conditions: per cent of control, KINOMEscan; read-out: Percent Control
Protocol: The structure and synthesis of VIP152 were recently described by Lücking et al.. (Fig. 1A); however, the selectivity of the molecule in cellular systems has yet to be explored. […] We also performed this experiment at 1000 nM, where CDK9 was inhibited at 99%. […] We found a strong concordance between our data and those of Lücking when comparing the most inhibited kinases. Potential off-target effects of VIP152 were next tested in vitro at a concentration of 10 µM for off-target activity against a broad range of receptors, transporters, ion channels, and enzymes (n = 138) using the Eurofins Diversity Panel. […] A Chemical structure of VIP152.

CAMKK1 = CAMKK1 (Homo sapiens, UniProt Q8N5S9); test: KINOMEscan: CAMKK1; format: binding; conditions: 1000 nM, read-out: Percent Control
human kinome [1] = molecular target: human kinome (Homo sapiens, UniProt Q7KZI7); test: DiscoverX KINOMEscan kinase profiling (468 assays); format: binding; conditions: MARK2; 100 nM; read-out: Percent Control
Protocol: (§1) Kinomescan Kinase Profiling Assay
(§2) Kinomescan Assay was performed at DiscoverRX and described in Fabian, et al. 2005, Nat.
(§3) Biotechnol. In brief, kinases were produced and subsequently tagged with DNA for qPCR detection.
(§4) Streptavidin-coated magnetic beads were bound to biotinylated kinase ligands to serve as a solid support.
(§5) VIP152 was dissolved in DMSO and tested across a 10 serial threefold dilution set and compared to a test
(§6) compound and a DMSO control.
(§7) Kinome map was produced via TreeSpot
(§8) Analysis from DiscoverRX. […]

human kinome [2] = molecular target: human kinome (Homo sapiens, UniProt Q59H18); test: DiscoverX KINOMEscan kinase profiling (468 assays); format: binding; conditions: kinase TNNI3K (Entrez TNNI3K); compound concentration 1000 nM; read-out: Percent Control
Protocol: as §1, §2, §3, §4, §5, §6, §7, §8

human kinome [3] = molecular target: human kinome (Homo sapiens, UniProt Q16816); test: DiscoverX KINOMEscan kinase profiling (468 assays); format: binding; conditions: read-out: Percent Control
Protocol: as §1, §2, §3, §4, §5, §6, §7, §8

human kinome [4] = molecular target: human kinome (Homo sapiens, UniProt P52333); test: DiscoverX KINOMEscan kinase profiling (468 assays); format: binding; conditions: JAK3(JH1domain-catalytic); 100 nM; read-out: Percent Control
Protocol: as §1, §2, §3, §4, §5, §6, §7, §8

human kinome [5] = molecular target: human kinome (Homo sapiens, UniProt Q9UQM7); test: DiscoverX KINOMEscan kinase profiling (468 assays); format: binding; conditions: CAMK2A; 100 nM; read-out: Percent Control
Protocol: as §1, §2, §3, §4, §5, §6, §7, §8

human kinome [6] = molecular target: human kinome (Homo sapiens, UniProt P00533, L861Q); test: DiscoverX KINOMEscan kinase profiling (468 assays); format: binding; conditions: EGFR(L861Q); 100 nM; read-out: Percent Control
Protocol: as §1, §2, §3, §4, §5, §6, §7, §8

human kinome [7] = molecular target: human kinome (Homo sapiens, UniProt P57078); test: DiscoverX KINOMEscan kinase profiling (468 assays); format: binding; conditions: kinase RIPK4 (Entrez RIPK4); compound concentration 1000 nM; read-out: Percent Control
Protocol: as §1, §2, §3, §4, §5, §6, §7, §8

human kinome [8] = molecular target: human kinome (Homo sapiens, UniProt Q00537); test: DiscoverX KINOMEscan kinase profiling (468 assays); format: binding; conditions: read-out: Percent Control
Protocol: as §1, §2, §3, §4, §5, §6, §7, §8

human kinome [9] = molecular target: human kinome (Homo sapiens, UniProt P45983); test: DiscoverX KINOMEscan kinase profiling (468 assays); format: binding; conditions: JNK1 (Entrez MAPK8); 100 nM; read-out: Percent Control
Protocol: as §1, §2, §3, §4, §5, §6, §7, §8

human kinome [10] = molecular target: human kinome (Homo sapiens, UniProt Q9UPZ9); test: DiscoverX KINOMEscan kinase profiling (468 assays); format: binding; conditions: ICK; 100 nM; read-out: Percent Control
Protocol: as §1, §2, §3, §4, §5, §6, §7, §8

human kinome [11] = molecular target: human kinome (Homo sapiens, UniProt Q8IVH8); test: DiscoverX KINOMEscan kinase profiling (468 assays); format: binding; conditions: MAP4K3; 100 nM; read-out: Percent Control
Protocol: as §1, §2, §3, §4, §5, §6, §7, §8

human kinome [12] = molecular target: human kinome (Homo sapiens, UniProt Q9NRH2); test: DiscoverX KINOMEscan kinase profiling (468 assays); format: binding; conditions: kinase SNRK (Entrez SNRK); compound concentration 1000 nM; read-out: Percent Control
Protocol: as §1, §2, §3, §4, §5, §6, §7, §8

human kinome [13] = molecular target: human kinome (Homo sapiens, UniProt Q6ZWH5); test: DiscoverX KINOMEscan kinase profiling (468 assays); format: binding; conditions: read-out: Percent Control
Protocol: as §1, §2, §3, §4, §5, §6, §7, §8

human kinome [14] = molecular target: human kinome (Homo sapiens, UniProt Q9UQB9); test: DiscoverX KINOMEscan kinase profiling (468 assays); format: binding; conditions: AURKC; 100 nM; read-out: Percent Control
Protocol: as §1, §2, §3, §4, §5, §6, §7, §8

human kinome [15] = molecular target: human kinome (Homo sapiens, UniProt Q2M2I8); test: DiscoverX KINOMEscan kinase profiling (468 assays); format: binding; conditions: AAK1; 100 nM; read-out: Percent Control
Protocol: as §1, §2, §3, §4, §5, §6, §7, §8

human kinome [16] = molecular target: human kinome (Homo sapiens, UniProt P53350); test: DiscoverX KINOMEscan kinase profiling (468 assays); format: binding; conditions: read-out: Percent Control
Protocol: as §1, §2, §3, §4, §5, §6, §7, §8

SNRK = SNRK (Homo sapiens, UniProt Q9NRH2); test: KINOMEscan: SNRK; format: binding; conditions: 100 nM, read-out: Percent Control

Chain of human kinome (Homo sapiens, UniProt P53350) (P53350 whole entry): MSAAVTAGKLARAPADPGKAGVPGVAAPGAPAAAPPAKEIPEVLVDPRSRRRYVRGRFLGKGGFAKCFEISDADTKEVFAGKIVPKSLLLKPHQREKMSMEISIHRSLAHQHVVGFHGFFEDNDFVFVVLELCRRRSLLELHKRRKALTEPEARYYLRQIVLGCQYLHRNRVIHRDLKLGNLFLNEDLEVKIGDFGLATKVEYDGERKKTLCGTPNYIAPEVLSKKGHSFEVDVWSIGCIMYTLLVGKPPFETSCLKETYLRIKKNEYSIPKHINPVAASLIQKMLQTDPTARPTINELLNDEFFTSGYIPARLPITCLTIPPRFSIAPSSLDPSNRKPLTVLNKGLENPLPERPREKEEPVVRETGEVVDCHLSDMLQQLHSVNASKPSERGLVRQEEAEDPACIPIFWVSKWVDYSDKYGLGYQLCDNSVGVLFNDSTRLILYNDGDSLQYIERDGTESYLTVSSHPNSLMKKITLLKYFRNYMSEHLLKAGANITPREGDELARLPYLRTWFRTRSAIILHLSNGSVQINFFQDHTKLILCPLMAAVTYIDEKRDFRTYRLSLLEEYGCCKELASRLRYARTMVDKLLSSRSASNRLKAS
Chain of human kinome (Homo sapiens, UniProt Q6ZWH5) (Q6ZWH5 whole entry): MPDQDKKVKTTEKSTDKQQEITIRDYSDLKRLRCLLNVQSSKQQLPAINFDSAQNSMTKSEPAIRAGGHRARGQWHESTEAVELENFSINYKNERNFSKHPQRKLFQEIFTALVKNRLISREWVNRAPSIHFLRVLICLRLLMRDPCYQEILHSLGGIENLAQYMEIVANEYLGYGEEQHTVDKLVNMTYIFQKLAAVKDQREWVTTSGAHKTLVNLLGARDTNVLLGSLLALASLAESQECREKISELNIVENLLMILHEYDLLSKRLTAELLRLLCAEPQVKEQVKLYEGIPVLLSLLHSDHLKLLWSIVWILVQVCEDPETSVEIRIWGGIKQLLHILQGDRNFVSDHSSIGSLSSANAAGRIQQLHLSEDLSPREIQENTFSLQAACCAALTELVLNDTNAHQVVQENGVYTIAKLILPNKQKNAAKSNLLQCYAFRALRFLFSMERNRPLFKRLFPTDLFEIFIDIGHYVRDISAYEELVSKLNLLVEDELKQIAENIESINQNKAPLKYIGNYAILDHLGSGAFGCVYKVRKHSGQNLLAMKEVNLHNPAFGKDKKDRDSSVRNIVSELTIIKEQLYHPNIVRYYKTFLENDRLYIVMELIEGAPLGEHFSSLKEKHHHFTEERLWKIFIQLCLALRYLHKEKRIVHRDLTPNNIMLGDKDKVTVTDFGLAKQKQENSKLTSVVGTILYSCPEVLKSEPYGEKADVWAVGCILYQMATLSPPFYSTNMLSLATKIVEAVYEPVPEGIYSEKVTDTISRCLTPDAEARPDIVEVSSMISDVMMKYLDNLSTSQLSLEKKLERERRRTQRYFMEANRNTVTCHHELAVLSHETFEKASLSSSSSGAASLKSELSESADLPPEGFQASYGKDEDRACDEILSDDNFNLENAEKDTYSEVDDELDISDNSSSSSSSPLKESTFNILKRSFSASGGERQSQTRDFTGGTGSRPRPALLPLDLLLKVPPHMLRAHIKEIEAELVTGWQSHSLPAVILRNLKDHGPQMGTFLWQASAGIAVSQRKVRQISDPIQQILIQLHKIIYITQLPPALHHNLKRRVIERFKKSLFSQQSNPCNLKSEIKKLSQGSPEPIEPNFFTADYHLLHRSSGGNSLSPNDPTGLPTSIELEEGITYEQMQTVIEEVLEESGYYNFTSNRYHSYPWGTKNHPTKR
Chain of human kinome (Homo sapiens, UniProt Q00537) (Q00537 whole entry): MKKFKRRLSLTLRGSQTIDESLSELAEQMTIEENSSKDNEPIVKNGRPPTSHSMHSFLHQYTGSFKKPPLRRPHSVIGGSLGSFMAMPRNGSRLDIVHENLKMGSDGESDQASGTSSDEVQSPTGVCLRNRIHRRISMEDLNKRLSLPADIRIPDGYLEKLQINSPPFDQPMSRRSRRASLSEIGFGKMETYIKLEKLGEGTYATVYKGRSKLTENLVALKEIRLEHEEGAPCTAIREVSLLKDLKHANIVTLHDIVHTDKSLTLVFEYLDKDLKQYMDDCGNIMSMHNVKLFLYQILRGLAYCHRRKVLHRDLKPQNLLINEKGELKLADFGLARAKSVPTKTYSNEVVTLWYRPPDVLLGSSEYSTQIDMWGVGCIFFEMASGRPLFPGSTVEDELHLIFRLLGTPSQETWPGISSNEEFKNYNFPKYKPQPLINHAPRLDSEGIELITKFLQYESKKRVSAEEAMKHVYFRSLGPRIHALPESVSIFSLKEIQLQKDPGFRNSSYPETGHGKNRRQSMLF
Chain of human kinome (Homo sapiens, UniProt Q16816) (Q16816 whole entry): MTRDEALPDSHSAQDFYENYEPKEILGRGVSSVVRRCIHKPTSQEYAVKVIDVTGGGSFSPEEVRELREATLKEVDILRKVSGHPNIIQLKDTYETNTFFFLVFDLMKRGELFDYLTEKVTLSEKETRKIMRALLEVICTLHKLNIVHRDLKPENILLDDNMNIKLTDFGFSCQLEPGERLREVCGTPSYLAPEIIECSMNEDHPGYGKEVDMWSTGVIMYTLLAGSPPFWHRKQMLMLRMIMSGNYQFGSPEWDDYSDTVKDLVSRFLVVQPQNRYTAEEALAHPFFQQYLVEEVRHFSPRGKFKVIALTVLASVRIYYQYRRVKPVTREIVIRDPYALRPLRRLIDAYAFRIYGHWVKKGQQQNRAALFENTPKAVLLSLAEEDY
Chain of CAMKK1 (Q8N5S9 whole entry): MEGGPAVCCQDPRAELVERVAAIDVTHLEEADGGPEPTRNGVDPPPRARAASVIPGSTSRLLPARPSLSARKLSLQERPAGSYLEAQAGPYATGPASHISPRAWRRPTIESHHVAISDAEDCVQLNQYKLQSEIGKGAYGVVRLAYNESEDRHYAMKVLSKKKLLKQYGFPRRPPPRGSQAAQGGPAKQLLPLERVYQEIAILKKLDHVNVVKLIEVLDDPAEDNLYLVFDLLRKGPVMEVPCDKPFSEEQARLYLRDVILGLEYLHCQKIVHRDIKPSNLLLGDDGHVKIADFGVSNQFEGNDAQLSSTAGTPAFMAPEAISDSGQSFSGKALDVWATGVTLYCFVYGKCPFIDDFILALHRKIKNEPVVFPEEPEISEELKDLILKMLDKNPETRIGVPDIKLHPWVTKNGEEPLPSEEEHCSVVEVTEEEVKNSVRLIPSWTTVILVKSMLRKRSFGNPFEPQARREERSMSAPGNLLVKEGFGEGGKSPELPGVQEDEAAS
Chain of INSRR (P14616 27-1297): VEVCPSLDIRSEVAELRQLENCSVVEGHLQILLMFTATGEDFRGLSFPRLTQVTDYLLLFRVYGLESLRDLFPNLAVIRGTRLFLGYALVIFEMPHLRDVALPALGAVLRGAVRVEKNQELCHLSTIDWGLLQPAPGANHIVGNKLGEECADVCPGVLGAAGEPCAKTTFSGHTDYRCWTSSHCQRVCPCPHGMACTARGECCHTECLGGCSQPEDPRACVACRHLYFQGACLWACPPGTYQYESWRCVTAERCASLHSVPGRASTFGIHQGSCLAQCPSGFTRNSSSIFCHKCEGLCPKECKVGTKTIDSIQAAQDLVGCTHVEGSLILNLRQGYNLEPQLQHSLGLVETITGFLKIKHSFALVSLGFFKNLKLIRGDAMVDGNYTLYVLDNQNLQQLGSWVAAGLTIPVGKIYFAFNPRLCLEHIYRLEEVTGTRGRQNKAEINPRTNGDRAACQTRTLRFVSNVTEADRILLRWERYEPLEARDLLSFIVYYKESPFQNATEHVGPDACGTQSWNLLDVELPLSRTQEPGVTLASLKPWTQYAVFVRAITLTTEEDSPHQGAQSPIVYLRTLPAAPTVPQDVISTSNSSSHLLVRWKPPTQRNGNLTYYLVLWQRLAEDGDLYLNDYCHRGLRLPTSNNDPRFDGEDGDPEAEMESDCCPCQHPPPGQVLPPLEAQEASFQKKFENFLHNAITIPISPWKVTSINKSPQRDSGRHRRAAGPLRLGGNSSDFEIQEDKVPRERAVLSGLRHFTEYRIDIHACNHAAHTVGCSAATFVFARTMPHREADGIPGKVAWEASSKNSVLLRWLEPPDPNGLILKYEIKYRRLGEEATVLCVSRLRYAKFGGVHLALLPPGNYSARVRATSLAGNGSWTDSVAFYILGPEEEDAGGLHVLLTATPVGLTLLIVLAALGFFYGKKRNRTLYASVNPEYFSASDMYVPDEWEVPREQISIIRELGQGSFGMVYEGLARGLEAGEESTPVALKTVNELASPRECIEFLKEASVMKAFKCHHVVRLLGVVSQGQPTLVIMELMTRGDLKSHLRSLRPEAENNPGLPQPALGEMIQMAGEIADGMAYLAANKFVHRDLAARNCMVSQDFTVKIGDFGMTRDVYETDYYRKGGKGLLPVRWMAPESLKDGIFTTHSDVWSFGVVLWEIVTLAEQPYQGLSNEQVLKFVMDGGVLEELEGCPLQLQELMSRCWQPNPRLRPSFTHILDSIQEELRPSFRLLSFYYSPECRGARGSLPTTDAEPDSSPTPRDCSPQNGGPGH
Chain of ADCK3 (Q8NI60 163-647): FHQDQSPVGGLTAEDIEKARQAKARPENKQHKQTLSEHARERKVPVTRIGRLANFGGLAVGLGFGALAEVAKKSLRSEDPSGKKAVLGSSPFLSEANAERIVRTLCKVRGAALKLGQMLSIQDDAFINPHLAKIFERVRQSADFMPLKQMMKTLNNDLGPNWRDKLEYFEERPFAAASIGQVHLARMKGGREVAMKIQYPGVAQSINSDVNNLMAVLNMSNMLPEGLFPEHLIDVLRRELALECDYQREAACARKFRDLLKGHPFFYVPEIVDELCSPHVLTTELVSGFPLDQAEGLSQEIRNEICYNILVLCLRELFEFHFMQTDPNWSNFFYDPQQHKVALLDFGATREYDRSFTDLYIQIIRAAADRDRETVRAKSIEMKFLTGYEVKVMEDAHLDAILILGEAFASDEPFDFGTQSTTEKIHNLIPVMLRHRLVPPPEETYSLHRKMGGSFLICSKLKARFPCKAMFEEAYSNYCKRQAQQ

`COc1cc(F)ccc1-c1cc(Nc2cc(CS(C)(=N)=O)ccn2)ncc1F` (centres unmarked) [VIP152] showed a remaining binding at 0.1 µM (S6K1) of 96%, a remaining binding at 1 µM (INSRR) of 85% and a remaining binding at 0.1 µM (TAOK1) of 92%. It also gave a remaining binding at 1 µM (EGFR(G719C)) of 97%, a remaining binding at 1 µM (GRK1) of 88% and a remaining binding at 1 µM (DMPK2) of 88%. It also gave a remaining binding at 1 µM (JNK1) of 82%, a remaining binding at 1 µM (ADCK3) of 97% and an inhibition at 10 µM (Adrenergic β2) of 3%. For the same molecule, the remaining binding at 0.1 µM (FLT3(ITD,F691L)) was 99%, the remaining binding at 1 µM (CAMKK1) was 13% and the remaining binding at 0.1 µM (human kinome [1]) was 100%. For the same molecule, the remaining binding at 1 µM (human kinome [2]) was 27%, the remaining binding at 0.1 µM (human kinome [3]; PHKG1, 100 nM) was 97% and the remaining binding at 1 µM (human kinome [3]; kinase PHKG1 (Entrez PHKG1), compound concentration 1000 nM) was 96%. It also gave a remaining binding at 0.1 µM (human kinome [4]) of 100%, a remaining binding at 0.1 µM (human kinome [5]) of 91% and a remaining binding at 0.1 µM (human kinome [6]) of 100%. The remaining binding at 1 µM (human kinome [7]) was 49%, the remaining binding at 0.1 µM (human kinome [8]; PCTK2 (Entrez CDK17), 100 nM) was 100% and the remaining binding at 1 µM (human kinome [8]; kinase PCTK2 (Entrez CDK17), compound concentration 1000 nM) was 54%. For the same molecule, the remaining binding at 0.1 µM (human kinome [9]) was 98%, the remaining binding at 0.1 µM (human kinome [10]) was 95% and the remaining binding at 0.1 µM (human kinome [11]) was 100%. The remaining binding at 1 µM (human kinome [12]) was 90%, the remaining binding at 0.1 µM (human kinome [13]; NEK10, 100 nM) was 97% and the remaining binding at 1 µM (human kinome [13]; kinase NEK10 (Entrez NEK10), compound concentration 1000 nM) was 77%. For the same molecule, the remaining binding at 0.1 µM (human kinome [14]) was 100%, the remaining binding at 0.1 µM (human kinome [15]) was 100% and the remaining binding at 0.1 µM (human kinome [16]; PLK1, 100 nM) was 100%. The remaining binding at 1 µM (human kinome [16]; kinase PLK1 (Entrez PLK1), compound concentration 1000 nM) was 89% and the remaining binding at 0.1 µM (SNRK) was 100%.
